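Tested at 5 concentrations; 48 h exposure; 96-well plates; endpoints linearly interpolated, else capped at highest concentration. GI50 = concentration required for 50% inhibition of growth. Definition used: TGI = concentration required for complete inhibition of growth.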
Tests used:
Experiment in all cases: NCI anticancer screen, dose series, 48 h
[1] = test system: A498 renal
[2] = test system: CCRF-CEM leukemia
[3] = test system: EKVX NSCLC
[4] = test system: HL-60(TB) leukemia
[5] = test system: MDA-MB-435
[6] = test system: NCI-H23 lung
[7] = test system: OVCAR-8 ovarian
[8] = test system: RPMI-8226 leukemia
[9] = test system: RXF 393 renal
[10] = test system: SNB-19 CNS

| Structure (SMILES) | GI50 [1] | TGI [1] | GI50 [2] | TGI [2] | GI50 [3] | TGI [3] | GI50 [4] | TGI [4] | GI50 [5] | TGI [5] | GI50 [6] | TGI [6] | GI50 [7] | TGI [7] | GI50 [8] | TGI [8] | GI50 [9] | TGI [9] | GI50 [10] | TGI [10] |
| --- | --- | --- | --- | --- | --- | --- | --- | --- | --- | --- | --- | --- | --- | --- | --- | --- | --- | --- | --- | --- |
| COC(=O)/C=C/c1cc(OC(C)=O)c2c(c1)C(C(=O)OC)C(c1ccc(OC(C)=O)c(OC(C)=O)c1)O2 (stereo unspecified) | 0.948 µM | 5.58 µM | 0.0404 µM | > 100 µM | 2.28 µM | > 86 µM | 0.0273 µM | 0.114 µM | 0.0219 µM | 0.0606 µM | 0.171 µM | > 100 µM | 0.224 µM | > 72.9 µM | 0.0574 µM | 5.25 µM | 0.167 µM | 55.2 µM | 0.131 µM | > 100 µM |
| COc1ccc(Cl)cc1NC(=O)c1ccc(NC2=C(Cl)C(=O)N(Cc3ccccc3)C2=O)cc1 | > 100 µM | > 100 µM | 3.99 µM | 94.5 µM | > 100 µM | > 100 µM | 9.51 µM | 55.3 µM | 99.7 µM | > 100 µM | 55.8 µM | > 100 µM | 19.4 µM | > 100 µM |  |  | 21.3 µM | 79.3 µM | > 100 µM | > 100 µM |
| O=C(Nc1nc(-c2c[nH]c3ccccc23)cs1)c1n[nH]c(=O)c2ccccc12 | 22 µM | > 100 µM | 1.27 µM | 98.8 µM | 51.3 µM | > 100 µM | 0.777 µM | > 100 µM | 3.96 µM | > 100 µM | 24.2 µM | > 100 µM | 2.26 µM | > 67.6 µM | 0.957 µM | 58.2 µM | 0.446 µM | 20.7 µM | > 34.5 µM | > 75 µM |
| COc1c(C)c(OCC=C(C)C)cc(CO)c1CO |  | > 100 µM |  | > 100 µM |  | > 100 µM |  | > 100 µM |  | > 100 µM |  | > 100 µM |  | > 100 µM |  | > 100 µM |  | 78.2 µM |  | > 100 µM |
| COc1ccc(-c2c(C#N)c(N3CCOCC3)nc3[nH]c(=S)[nH]c(=S)c23)cc1OC | > 100 µM | > 100 µM | 41.3 µM | > 100 µM | > 100 µM | > 100 µM | 36.2 µM | > 100 µM | 54.8 µM | > 100 µM | 20.9 µM | > 100 µM | 34.5 µM | > 100 µM | 9.74 µM | 70.5 µM | 62.6 µM | > 100 µM | > 100 µM | > 100 µM |
| COC(=O)c1c(C)cc(OC)c(C/C=C(\C)CCCc2coc(C=C(C)C)c2)c1OC |  |  |  | > 100 µM |  | > 100 µM |  | > 100 µM |  | > 100 µM |  | > 100 µM |  | > 100 µM |  | > 100 µM |  |  |  | > 100 µM |
| CSC[C@H](NC(=O)COc1cccc2cnccc12)C(=O)NC(Cc1ccccc1)C(O)C(=O)N1CSC[C@H]1C(=O)NC(C)(C)C (stereo partly specified) |  | > 100 µM |  | > 100 µM |  |  |  | 91.4 µM |  | > 100 µM |  | > 100 µM |  | > 100 µM |  | > 100 µM |  | 99.8 µM |  | > 100 µM |
| Cc1cc(C(=O)CSC(=S)SC(C)(C)C)ccc1Cl |  | 29.8 µM |  |  |  | 56.8 µM |  | 44.1 µM |  | 91.1 µM |  | > 100 µM |  | > 100 µM |  | 52.1 µM |  | 29 µM |  | 32 µM |
| CCSc1nc(N=Cc2ccccc2O)c2cn[nH]c2n1 | 4.61 µM | 29.2 µM |  |  | 47.2 µM | > 100 µM |  |  | 19.7 µM | 72.8 µM | 15.2 µM | 34.9 µM | 48.8 µM | > 100 µM | 23.2 µM | > 100 µM | 12.9 µM | 44.6 µM | 56.1 µM | > 100 µM |
| CNCCCNc1ccnc2cc(Cl)ccc12 | 12.4 µM | 40.3 µM |  |  |  |  | 22.1 µM | 65 µM | 14.4 µM | 28.4 µM | 30.8 µM | > 100 µM | 28.3 µM | > 100 µM | 20 µM | 55.7 µM | 14.5 µM | 65.4 µM | 36.1 µM | > 100 µM |
| O=c1[nH]c(O)c(C=Nc2ccc(-c3nc4ccccc4o3)cc2)c(=O)[nH]1 |  |  |  |  | > 100 µM | > 100 µM | 81.9 µM | > 100 µM | 33.3 µM | > 100 µM |  |  | 25.8 µM | > 100 µM | 27.5 µM | > 100 µM | 89 µM | > 100 µM | > 100 µM | > 100 µM |
| C=C(C)[C@@H]1CC[C@]2(CN)CC[C@]3(C)[C@H](CC[C@@H]4[C@@]5(C)CCCNC(C)(C)[C@@H]5CC[C@]43C)[C@@H]12 | 1.5 µM | 2.92 µM | 2.27 µM | 4.92 µM | 1.77 µM | 3.39 µM |  |  | 1.6 µM | 2.98 µM | 1.7 µM | 3.3 µM |  |  |  |  | 1.75 µM | 3.49 µM |  |  |
| COc1cc(/C=C2\CCCCC3=C2N=C2SC(C)=CN2C3c2cc(OC)c(OC)c(OC)c2)cc(OC)c1OC (stereo unspecified) |  |  | 34.7 µM | > 100 µM |  |  | 19.5 µM | > 100 µM | 24.3 µM | > 100 µM | 32.2 µM | > 100 µM | 11.9 µM | > 100 µM | 0.013 µM | > 100 µM | 3.06 µM | > 100 µM | > 100 µM | > 100 µM |
| COc1nc(=O)n(C2C=CC(=O)O2)cc1F (stereo unspecified) | 16.2 µM | 38.1 µM |  |  | 11.3 µM | > 100 µM |  |  | 5.23 µM | 27.6 µM | 8.06 µM | 25.5 µM | 23.9 µM | > 100 µM | 3.26 µM | 13.4 µM | 1.94 µM | 5.03 µM | 22.3 µM | 57 µM |
| O=C(CNc1ccc(Cl)cc1Cl)Nn1c(-c2ccccc2)nc2ccccc2c1=O |  |  |  | 16.3 µM |  | 35.5 µM |  | > 100 µM |  | 30.2 µM |  | 29.8 µM |  | > 100 µM |  | 71.3 µM |  | 36.5 µM |  | 33.9 µM |
| CNc1nc(N)nc(Nc2ccc(I)cc2)c1N=O |  |  |  | > 100 µM |  | > 100 µM |  | > 100 µM |  | > 100 µM |  | > 100 µM |  | > 100 µM |  | > 100 µM |  | > 100 µM |  | > 100 µM |
| N#CC(I)CS(=O)(=O)c1ccccc1 (stereo unspecified) | 35.4 µM | > 100 µM |  |  | 19.4 µM | 44.2 µM |  |  | 17.6 µM | 34.5 µM | 16.7 µM | 31.7 µM | 17.4 µM | 32.2 µM | 17.5 µM | 41.4 µM | 4.1 µM | 13 µM | > 100 µM | > 100 µM |
| O=C(CC(=O)Nc1ccccc1)NNC(Sc1ccccc1)c1cc(N=Nc2ccc(Br)cc2)ccc1O (stereo unspecified) |  | 5.84 µM |  | > 10 µM |  | > 10 µM |  | 1.9 µM |  | > 10 µM |  | > 10 µM |  |  |  | > 10 µM |  | > 10 µM |  | > 10 µM |
| O=[N+]([O-])c1cccnc1N=Nc1c(O)[nH]c2ccccc12 |  | > 100 µM |  |  |  | 66 µM |  |  |  | > 100 µM |  |  |  | > 100 µM |  | 79.2 µM |  |  |  | 58.5 µM |
| NC(N)=Nc1nc2ccccc2o1 |  |  | > 100 µM | > 100 µM | > 100 µM | > 100 µM | > 100 µM | > 100 µM | > 100 µM | > 100 µM | > 100 µM | > 100 µM | 49.2 µM | > 100 µM |  |  | > 100 µM | > 100 µM | > 100 µM | > 100 µM |
| COC(=O)c1c2c(c(C)[n+]([O-])c1C)C(=O)C(NCc1ccc(Br)cc1)=CC2=O | 1.62 µM | 4.35 µM |  |  |  |  | 2.31 µM | 5.37 µM | 1.55 µM | 2.96 µM | 1.57 µM | 4.68 µM | 1.83 µM | 7.19 µM |  |  | 1.99 µM | 5.96 µM |  |  |
| C=C(CN(C)Cc1ccccc1)c1ccc(NC(=O)c2ccc(C(=C)CN(C)Cc3ccccc3)cc2)cc1 | 20.8 µM | 48.9 µM | > 100 µM | > 100 µM | 73.3 µM | > 100 µM |  |  | > 100 µM | > 100 µM | 49.4 µM | > 100 µM | 45.3 µM | > 100 µM | 21.7 µM | 53.6 µM | 32 µM | 99.3 µM | 25.5 µM | 80.1 µM |
| CCCCOCCOC1=C(Cl)C(=O)c2c(O)ccc(O)c2C1=O |  | 4.33 µM |  | 0.242 µM |  | 7.59 µM |  |  |  | 1.07 µM |  | 1.02 µM |  | 2.56 µM |  | 0.806 µM |  | 0.668 µM |  | 1.82 µM |
| CCOC(=O)c1c(C)c2c(n1Cc1ccccc1)CSCC2=O |  |  | 29.9 µM | > 100 µM | 16.3 µM | > 100 µM | 18.8 µM | 54.1 µM | 17.3 µM | 39.1 µM | 17.2 µM | 63.8 µM | 27.6 µM | > 100 µM | 14.4 µM | > 100 µM | 16.2 µM | 70.6 µM | 14.2 µM | > 100 µM |

From PubChem BioAssay (NCI)
